In US9169241B2, “Quinolinyloxyphenylsulfonamides” (Max-Planck-Gesellschaft Zur Forderung der Wissenschaften …, priority 2009, dated 2015):

Tests used:
Hs578T [1] = experiment: Matrigel outgrowth assay/branching assay; type: cell-based; details: Homo sapiens, Hs-578T; HS578T cell line; Table Ib; read-out: Total branching inhibition in Matrigel HS578T
Procedure, shortened: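 Invasive outgrowth into a 3 mg/ml Matrigel gel is judged from images taken after 48, 72 and 96 h of exposure to 3.125, 1.56 or 0.78 μM compound, with DMSO as control. Positive means total inhibition of branching.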

Hs578T [2] = experiment: Cell vitality assay (ATP assay, CellTiter-Glo); type: cell-based; details: Homo sapiens, Hs-578T; HS578T cell line, 72 h; Table Ib; read-out: IC50 ATP-Assay HS578T after 72 h
Procedure, shortened: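 ATP-based luminescence (CellTiter-Glo) after 72 h exposure of 1000 cells/well to seven compound concentrations from 0.195 to 12.5 μM. IC50 defined as concentration reducing ATP to 50% of DMSO control.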

[3] = biological target: T1, wild type AXL (wtAXL) receptor tyrosine kinase (Homo sapiens, UniProt P30530); experiment: NIH-3T3-AXL cellular kinase assay (pY-AXL-ELISA); type: cell-based; details: NIH-3T3-AXL (clone 22) cells, serum depleted, compounds 1 h; Table Ia
T1 construct: WtAXL cDNA was cloned into vector pLXSN(ESK) and transfected into Phoenix E packaging cells; expressed in transfected cells; host or cells: NIH3T3 N7 (mouse fibroblasts), retrovirally infected, clone 22
T1 sequence (P30530 26-894): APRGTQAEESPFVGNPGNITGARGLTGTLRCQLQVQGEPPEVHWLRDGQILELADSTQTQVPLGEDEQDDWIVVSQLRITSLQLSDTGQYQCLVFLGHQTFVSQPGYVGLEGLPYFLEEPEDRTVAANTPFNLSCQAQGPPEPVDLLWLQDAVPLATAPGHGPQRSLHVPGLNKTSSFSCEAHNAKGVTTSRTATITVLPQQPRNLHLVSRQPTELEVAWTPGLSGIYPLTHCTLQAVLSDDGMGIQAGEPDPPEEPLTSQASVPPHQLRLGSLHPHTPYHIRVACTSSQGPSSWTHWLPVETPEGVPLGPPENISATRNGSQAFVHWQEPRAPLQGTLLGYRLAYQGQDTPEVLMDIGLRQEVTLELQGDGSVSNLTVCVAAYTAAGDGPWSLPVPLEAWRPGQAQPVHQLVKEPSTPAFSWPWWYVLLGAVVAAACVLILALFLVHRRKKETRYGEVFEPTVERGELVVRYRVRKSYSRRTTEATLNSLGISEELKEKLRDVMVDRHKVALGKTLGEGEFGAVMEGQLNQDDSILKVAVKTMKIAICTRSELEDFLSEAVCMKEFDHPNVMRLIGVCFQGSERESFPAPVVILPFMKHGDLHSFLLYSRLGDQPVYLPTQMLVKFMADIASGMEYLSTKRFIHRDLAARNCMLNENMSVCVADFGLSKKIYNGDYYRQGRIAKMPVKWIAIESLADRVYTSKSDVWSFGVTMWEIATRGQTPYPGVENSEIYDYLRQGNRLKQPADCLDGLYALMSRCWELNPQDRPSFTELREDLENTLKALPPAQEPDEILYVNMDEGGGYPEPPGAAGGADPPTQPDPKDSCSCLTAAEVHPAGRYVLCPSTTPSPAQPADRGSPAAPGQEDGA
Procedure: WtAXL cDNA was cloned into vector pLXSN(ESK) and transfected into Phoenix E packaging cells. The viral supernatant was collected and used to infect target cells NIH3T3 N7. Monoclonal NIH3T3-AXL cell lines stably expressing wtAXL were generated by selecting retrovirally infected cells in medium containing puromycin (2 μg/ml) and subsequent clonal separation.
Serial dilutions of compounds were added, and the cells were further incubated for 1 h. Cells were washed with PBS and lysed on ice in 500 μl lysis buffer (50 mM HEPES (pH 7.5), 150 mM NaCl, 1 mM EGTA, 10% Glycerol, 1% Triton X-100, 100 mM NaF, 10 mM Na4P2O7.10H2O, 1 mM Na3VO4, 1 mM phenylmethylsulfonyl fluoride, and […]) for 15 min. The cell lysate were used for phosphotyrosine AXL enzyme-linked immunosorbant assay (pY-AXL-ELISA). […] Subsequently 96-well plates were blocked with PBS-0.05% Tween®20+10% FBS for 4 h at 37° C. Plates were washed 5 times with PBS-0.05% Tween®20 and 95 μl of lysate was transferred per well for incubation overnight at 4° C. Plates were washed 5 times with PBS-0.05% Tween®20 (Sigma, Steinheim, Germany). For detection of phosphorylated tyrosine we used homemade biotynilated 4G10-antibody (0.5 μg/ml) in PBS-0.05% Tween®20+10% FBS (100 μl/well) and incubated the 96-well plate for 2 h at room temperature. The anti-phosphotyrosine mouse monoclonal antibody 4G10 was biotynilated with Sulfo-NHS®-Biotin according to the suppliers protocol (Pierce, Rockford, Ill., USA) and purified by Mirco Bio-Spin 6 Chromatograpy Columns (BIO RAD Laboratories, Inc., Hercules, Calif., USA) using PBS as diluent. Plates were washed 5 times with PBS-0.05% Tween®20. For biding to biotin Alkaline Phosphatase Conjugated Strepavidin SA110 (Millipore, Billerica, Mass., USA) (1:4000) was used in PBS-0.05% Tween20+10% FBS (100 μl/well) and incubated for 30 min at room temperature. Plates were washed 5 times with PBS-0.05% Tween20. For fluorimetric detection of alkaline phosphatase AttoPhos Substrate Set (Roche diagnostics GmbH, Mannheim, Germany) was used (100 μl/well). The fluorimetric signal was quantified after 90 min at 430/560 nm wavelength using a TECAN Ultra Evolution plate reader (Tecan Deutschland GmbH, Crailsheim, Germany).

Hs578T [4] = experiment: Wound healing migration assay; type: cell-based; details: Homo sapiens, Hs-578T; HS578T cell line; Table Ib
Procedure, shortened: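 Compound exposure at 12.5, 6.25 and 3.125 μM, with DMSO control, on scratch-wounded monolayers (150000 cells/24 well, overnight). Wound closure imaged by microscopy, fixed with crystal violet after 48 h or 72 h depending on cell line; IC50 is the concentration giving 50% wound size between t0 and t48/t72.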

Row | Compound | IC50 (Hs578T [1]) [µM] | IC50 (Hs578T [2]) [µM] | melting point [°C] | IC50 [3] [µM] | IC50 (Hs578T [4]) [µM]
1 | COc1cc2c(Oc3ccc(NS(=O)(=O)c4cccc(OC(F)(F)F)c4)cc3F)ccnc2cc1OCCCN1CCCC(C)C1 (centres unmarked) [Example 46, N-(3-Fluoro-4-{6-methoxy-7-[3-(3-methyl-piperidin-1-yl)-propoxy]-quinolin-4-yloxy}-phenyl)-3-trifluoromethoxy-benzenesulfonamide] | ≤ 10 | ≤ 12.5 | 102 to 104 | < 0.5 | ≤ 12.5
2 | COc1cc2c(Oc3ccc(NS(=O)(=O)c4cc(F)ccc4F)cc3OC)ccnc2cc1OCCCN1CCC(C)CC1 [Example 207, 2,5-Difluoro-N-(3-methoxy-4-{6-methoxy-7-[3-(4-methyl-piperidin-1-yl)-propoxy]-quinolin-4-yloxy}-phenyl)-benzenesulfonamide] | 10 to 25 | ≤ 12.5 | 170 to 172 | 0.5 to 3 | ≤ 12.5
3 | COc1cc2c(Oc3ccc(NS(=O)(=O)c4cc(F)ccc4F)cc3C)ccnc2cc1OCCCN1CCC(C)CC1 [Example 171, 2,5-Difluoro-N-(4-{6-methoxy-7-[3-(4-methyl-piperidin-1-yl)-propoxy]-quinolin-4-yloxy}-3-methyl-phenyl)-benzenesulfonamide] | 10 to 25 | 12.5 to 50 | 222 to 223 | 0.5 to 3 | 12.5 to 50
4 | COc1cc2c(Oc3ccc(NS(=O)(=O)c4c(Cl)cccc4Cl)cc3C)ccnc2cc1OCCCN1CCC(C)CC1 [Example 176, 2,6-Dichloro-N-(4-{6-methoxy-7-[3-(4-methyl-piperidin-1-yl)-propoxy]-quinolin-4-yloxy}-3-methyl-phenyl)-benzenesulfonamide] | ≤ 10 | ≤ 12.5 | 209 to 210 | 0.5 to 3 | ≤ 12.5
5 | COc1cc2c(Oc3ccc(NS(=O)(=O)c4ccc(Cl)s4)cc3F)ccnc2cc1OCCCN(C)C [Example 182, 5-Chloro-thiophene-2-sulfonic acid {4-[7-(3-dimethylamino-propoxy)-6-methoxy-quinolin-4-yloxy]-3-fluoro-phenyl}-amide] | 10 to 25 | ≤ 12.5 | 130 to 132 | < 0.5 | ≤ 12.5
6 | COc1cc2c(Oc3ccc(NS(=O)(=O)c4ccccc4C(F)(F)F)cc3C)ccnc2cc1OCCCN1CCC(C)CC1 [Example 89, N-(4-{6-Methoxy-7-[3-(4-methyl-piperidin-1-yl)-propoxy]-quinolin-4-yloxy}-3-methyl-phenyl)-2-trifluoromethyl-benzenesulfonamide] | ≤ 10 | ≤ 12.5 | 165 to 167 | < 0.5 | ≤ 12.5
7 | COc1cc2c(Oc3ccc(NS(=O)(=O)c4ccccc4[N+](=O)[O-])cc3F)ccnc2cc1OCCN1CCOCC1 [Example 109, N-{3-Fluoro-4-[6-methoxy-7-(2-morpholin-4-yl-ethoxy)-quinolin-4-yloxy]-phenyl}-2-nitro-benzenesulfonamide] | 10 to 25 | ≤ 12.5 | 129 to 131 | < 0.5 | 12.5 to 50
8 | COc1ccc2nccc(Oc3ccc(NS(=O)(=O)c4ccccc4C(F)(F)F)cc3F)c2c1 [Example 201, N-[3-Fluoro-4-(6-methoxy-quinolin-4-yloxy)-phenyl]-2-trifluoromethyl-benzenesulfonamide] | 10 to 25 | 12.5 to 50 | 168 to 169 | 0.5 to 3 | 12.5 to 50
9 | COc1cc2c(Oc3ccc(NS(=O)(=O)c4ccc(Cl)s4)cc3F)ccnc2cc1OCCCN1CCCCC1C (centres unmarked) [Example 145, 5-Chloro-thiophene-2-sulfonic acid (3-fluoro-4-{6-methoxy-7-[3-(2-methyl-piperidin-1-yl)-propoxy]-quinolin-4-yloxy}-phenyl)-amide] | 10 to 25 | ≤ 12.5 | 118 to 120 | < 0.5 | ≤ 12.5
10 | COc1cc2c(Oc3ccc(NS(=O)(=O)c4cc(Cl)ccc4Cl)cc3F)ccnc2cc1OCCCN1CCCC(C)C1 (centres unmarked) [Example 50, 2,5-Dichloro-N-(3-fluoro-4-{6-methoxy-7-[3-(3-methyl-piperidin1-yl)-propoxy]-quinolin-4-yloxy}-phenyl)-benzenesulfonamide] | ≤ 10 | ≤ 12.5 | 127 to 129 | < 0.5 | ≤ 12.5
11 | COc1cc2c(Oc3ccc(Cl)c(NS(=O)(=O)c4cc(Cl)ccc4Cl)c3)ccnc2cc1OCCCN1CCC(C)CC1 [Example 197, 2,5-Dichloro-N-(2-chloro-5-{6-methoxy-7-[3-(4-methyl-piperidin-1-yl)-propoxy]-quinolin-4-yloxy}-phenyl)-benzenesulfonamide] | 10 to 25 | 12.5 to 50 | 223 to 224 | 0.5 to 3 | 12.5 to 50
12 | COc1cc2c(Oc3ccc(NS(=O)(=O)c4c(F)cccc4F)cc3C)ccnc2cc1OCCCN1CCC(C)CC1 [Example 172, 2,6-Difluoro-N-(4-{6-methoxy-7-[3-(4-methyl-piperidin-1-yl)-propoxy]-quinolin-4-yloxy}-3-methyl-phenyl)-benzenesulfonamide] | ≤ 10 | ≤ 12.5 | 191 to 193 | 0.5 to 3 | ≤ 12.5
13 | COc1cc2c(Oc3ccc(NS(=O)(=O)c4ccccc4)cc3F)ccnc2cc1OCCCN1CCCC(C)C1 (centres unmarked) [Example 36, N-(3-Fluoro-4-{6-methoxy-7-[3-(3-methyl-piperidin-1-yl)-propoxy]-quinolin-4-yloxy}-phenyl)-benzenesulfonamide] | 10 to 25 | ≤ 12.5 | 160 to 161 | < 0.5 | 12.5 to 50
